The numbers were not newly measured in US6126939A, “Anti-inflammatory dipeptide and pharmaceutical composition thereof” (Yeda Research and Development Co. Ltd., priority 1997, dated 2000), which cites them from elsewhere.

One series deals with macrophage migration. The following applies: literature.
A further series relates to blood sugar levels. The settings on record: rats, i.p. 100 mg/kg.
The conditions of series [1]: in vitro test assay.
Another series concerns IL-1. The following applies: literature.

As to `COc1ccc2c(C(=S)N(C)CC(=O)O)cccc2c1C(F)(F)F` [Tolrestat], in the series on macrophage migration, the macrophage migration entry is recorded as “Another MIF”.
Arg-Asn: in the series with blood sugar levels, the “hypoglycemic activity (lowering of blood sugar levels)” value is on record as “having hypoglycemic activity”. In series [1], the antilipolytic activity entry is reported as “no significant antilipolytic activity”.
Take Arg-Asn-NH2: in the series on blood sugar levels, the “hypoglycemic activity (lowering of blood sugar levels)” value is given as “having hypoglycemic activity”. The antilipolytic activity entry in series [1] is listed as “have antilipolytic activity”.
Turning to Asn-Arg-NH2, in the series on blood sugar levels, the “hypoglycemic activity (lowering of blood sugar levels)” value is given as “having hypoglycemic activity”. The antilipolytic activity entry in series [1] is “have antilipolytic activity”.
As for Gln-Arg-NH2, in the series on blood sugar levels, the “hypoglycemic activity (lowering of blood sugar levels)” value was “having hypoglycemic activity”. Further, the antilipolytic activity result in series [1] was “have antilipolytic activity”.
As for Gln-Arg-OMe, the “hypoglycemic activity (lowering of blood sugar levels)” value with blood sugar levels is listed as “having hypoglycemic activity”. Also, the antilipolytic activity result in series [1] is recorded as “no significant antilipolytic activity”.
For Glu-Arg-NH2, the “hypoglycemic activity (lowering of blood sugar levels)” value with blood sugar levels is “did not significantly lower blood sugar levels”. Besides, the antilipolytic activity result in series [1] is “have antilipolytic activity”.
As for Glu-Arg-OMe, the “hypoglycemic activity (lowering of blood sugar levels)” value in the series with blood sugar levels is recorded as “having hypoglycemic activity”. In addition, the antilipolytic activity entry in series [1] is on record as “have antilipolytic activity”.
On to Thr-Lys-Pro [TKP], for which the “secretion of IL-1 macrophages” value with IL-1 is “reduce secretion of IL-1”. Also, the macrophage migration entry in the series with macrophage migration is reported as “inhibit macrophage migration”.
